Data from PubChem BioAssay (NCI).
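Grown in 96-well plates, cells were treated for 48 hours with each compound at five concentrations. Insufficient inhibition: endpoint recorded as highest concentration tested. At the GI50, growth is halved. TGI marks complete inhibition of growth.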

What was measured:
Experiment in all cases: NCI anticancer screen, dose series, 48 h
[1] = system: MALME-3M melanoma
[2] = system: NCI-H460 lung
[3] = system: U251 CNS
[4] = system: NCI/ADR-RES ovarian
[5] = system: MDA-MB-435
[6] = system: OVCAR-8 ovarian
[7] = system: MCF7 breast
[8] = system: SW-620 colon
[9] = system: RPMI-8226 leukemia
[10] = system: 786-0 renal

Compound | TGI [1] | TGI [2] | TGI [3] | TGI [4] | TGI [5] | TGI [6] | TGI [7] | TGI [8] | TGI [9] | TGI [10] | GI50 [1] | GI50 [3] | GI50 [4] | GI50 [9] | GI50 [6] | GI50 [7] | GI50 [8] | GI50 [2] | GI50 [5]
Cn1c(=O)c(-c2ccccc2)c(N=[N+]=[N-])c2ccccc21 | 87.8 µM | > 100 µM | > 100 µM | > 100 µM | > 100 µM | > 100 µM | > 100 µM | > 100 µM |  |  |  |  |  |  |  |  |  |  | 
CCOC(=O)NC(Nc1ccc(S(=O)(=O)Nc2nc(C)cc(C)n2)cc1)(C(=O)OCC)C(F)(F)F (stereo not given) | > 100 µM | > 100 µM | > 100 µM |  | > 100 µM | > 100 µM | > 100 µM | > 100 µM | > 100 µM | > 100 µM |  |  |  |  |  |  |  |  | 
COc1ccc(-[n+]2nc(S(=O)(=O)O)c(/C=C/c3ccc(N(C)C)cc3)cc2C#N)cc1 |  |  | > 100 µM | > 100 µM | > 100 µM | > 100 µM | > 100 µM | > 100 µM | > 100 µM | > 100 µM |  |  |  |  |  |  |  |  | 
CCC(/C=C/C1OC(=O)C=CC1C)=C\C(C)C/C=C/C(C)=C/C(C)C(=O)C(C)C(O)C(C)C/C(C)=C/C(=O)O (stereo not given) | 6.29 µM |  | 5.89 µM | 4.15 µM | 2.64e-05 µM | 9.77 µM |  | 6.29 µM |  |  | 0.000217 µM | < 1 pM | 0.701 µM | 3.11 pM | 1.54 pM | < 1 pM | 0.00244 nM |  | 
COc1ccc(P2(=S)OC(C)(C)C(C)(C)O2)cc1 | > 100 µM | > 100 µM | > 100 µM | > 100 µM | > 100 µM | > 100 µM | > 100 µM | > 100 µM |  | > 100 µM |  |  |  |  |  |  |  |  | 
CC(=O)Oc1ccc2c(C)cc(=O)oc2c1OC(C)=O | 99.6 µM |  | > 100 µM | 78.6 µM | > 100 µM | > 100 µM | > 100 µM | > 100 µM | 89.9 µM | > 100 µM |  |  |  |  |  |  |  |  | 
CSc1ncnc2c1ncn2CCC(=O)OC(C)(C)C | > 100 µM | > 100 µM |  | > 100 µM | > 100 µM | > 100 µM | > 100 µM | > 100 µM | > 100 µM | > 100 µM |  |  |  |  |  |  |  |  | 
Cc1ccc(-n2c(N)c(C#N)c3[nH]nc(N)c3c2=O)cc1 |  | > 100 µM | > 100 µM | > 100 µM | > 100 µM | > 100 µM | > 100 µM | > 100 µM | > 100 µM | > 100 µM |  |  |  |  |  |  |  |  | 
C=C(C)[C@@H]1CC[C@]2(C(=O)NC3CCCCC3)CC[C@]3(C)[C@H](CC[C@@H]4[C@@]5(C)CCCNC(C)(C)[C@@H]5CC[C@]43C)[C@@H]12 |  | 3.3 µM |  |  | 3.15 µM |  |  | 3.15 µM |  |  |  |  |  |  |  |  | 1670 nM | 1.78 µM | 1.7 µM
COc1ccc(C(OCC2OC(n3cc(C)c(=O)[nH]c3=O)CC2n2cc(Cn3cc(Cl)c(=O)[nH]c3=O)nn2)(c2ccccc2)c2ccccc2)cc1 (stereo not given) | > 100 µM |  | > 100 µM | > 100 µM | > 100 µM | > 100 µM | > 100 µM | > 100 µM | > 100 µM | > 100 µM |  |  |  |  |  |  |  |  | 
CN(C)C1(N(C)C)Oc2c(c(=O)n(C)c(=O)n2C)C(c2ccccc2)C1(F)F (stereo not given) |  | > 100 µM | > 100 µM | > 100 µM | > 100 µM |  | > 100 µM | > 100 µM | > 100 µM | > 100 µM |  |  |  |  |  |  |  |  | 
N#Cc1c(N)n(-c2cccc(C(=O)O)c2)c(=O)c2cc([N+](=O)[O-])ccc12 |  | > 100 µM | > 100 µM | > 100 µM | > 100 µM | > 100 µM |  | > 100 µM | > 100 µM | > 100 µM |  |  |  |  |  |  |  |  | 
c1ccc(CCNc2ccccn2)nc1 | > 100 µM | > 100 µM | > 100 µM | > 100 µM | > 100 µM | > 100 µM | > 100 µM | > 100 µM |  | > 100 µM |  |  |  |  |  |  |  |  | 
O=[N+]([O-])c1ccc2c(c1)C1=C(CO2)Cc2ccccc2O1 | 70.4 µM |  | 36.2 µM | > 100 µM | 80.5 µM | > 100 µM |  | 53.5 µM | > 100 µM | 39.9 µM |  |  |  |  |  |  |  |  | 
S=c1sc2c(Cl)nc(Cl)nc2n1-c1ccccc1 | > 100 µM | > 100 µM | 98 µM |  |  | > 100 µM |  | 68.1 µM | > 100 µM | > 100 µM |  |  |  |  |  |  |  |  | 
Cc1c(N=Nc2ccc(Cl)cc2)c(-c2ccccc2)n(C2OC(CO)C(O)C(O)C2O)c(=S)c1C#N (stereo not given) | 46.4 µM | 51.7 µM | 25.3 µM | 32.8 µM | 22.2 µM |  | 34.5 µM | 32.9 µM | > 100 µM | 36.7 µM |  |  |  |  |  |  |  |  | 
O=C1/C(=C/c2ccccc2S)N=C(c2ccccc2)N1c1nc2c(Cl)cc(Cl)cc2s1 |  | > 100 µM | 54.2 µM | 84.9 µM | 48.2 µM | 73.3 µM | 58.1 µM | > 100 µM | 54.1 µM | 74.1 µM |  |  |  |  |  |  |  |  | 
CCC(C)OC(=O)/C(Br)=C1/OC(=O)c2ccccc2-c2ccccc21 (stereo not given) | 80.6 µM | 73.9 µM |  | 71.4 µM | > 100 µM | > 100 µM | > 100 µM | > 100 µM | 87.9 µM | > 100 µM |  |  |  |  |  |  |  |  | 

Compound | TGI [1] | TGI [2] | TGI [3] | TGI [4] | TGI [5] | TGI [6] | TGI [7] | TGI [8] | TGI [9] | TGI [10] | GI50 [1] | GI50 [3] | GI50 [4] | GI50 [9] | GI50 [6] | GI50 [7] | GI50 [8] | GI50 [2] | GI50 [5]
CC#CCOC(=O)c1ccccc1OC(C)=O |  | > 100 µM | > 100 µM | > 100 µM | > 100 µM | > 100 µM | > 100 µM | > 100 µM | > 100 µM | > 100 µM |  |  |  |  |  |  |  |  | 
Cn1c(=O)c2c(nc(Cc3ccccc3)n2CC(=O)O)n(C)c1=O | > 100 µM | > 100 µM | > 100 µM | > 100 µM | > 100 µM | > 100 µM |  | > 100 µM |  | > 100 µM |  |  |  |  |  |  |  |  | 
O=C(O)CCC(NC(=O)c1ccc(Nc2nc3cc(C(F)(F)F)ccc3nc2-c2ccccc2)cc1)C(=O)O (stereo not given) | > 100 µM | > 100 µM | > 100 µM | > 100 µM |  | > 100 µM | > 100 µM | > 100 µM | > 100 µM |  |  |  |  |  |  |  |  |  | 
CN(C)CCC(=O)c1ccccc1 | 24.1 µM | > 73.5 µM | > 69.4 µM |  |  | > 71.9 µM |  | 32.4 µM | > 100 µM | 44.2 µM |  |  |  |  |  |  |  |  | 
COc1ccc(S(=O)(=O)c2nnc(S(=O)(=O)Cc3ccccc3)s2)cc1 |  | 38.1 µM | 52.3 µM | > 100 µM | 71.8 µM | 49.4 µM | 60.6 µM | 44 µM | > 100 µM | 62.1 µM |  |  |  |  |  |  |  |  | 
CCCNC(=S)NNC(=O)CSc1nc(-c2ccccc2)c(-c2ccccc2)[nH]1 | 95.4 µM | > 100 µM | > 100 µM |  |  | > 100 µM |  | > 100 µM | > 100 µM | > 100 µM |  |  |  |  |  |  |  |  | 
COc1cc2c(C)cc(O)cc2c2cc(O)c(C)cc12 |  | 9.73 µM | 21.3 µM | 30.4 µM | 19.2 µM | 40.2 µM | 20.5 µM | 19.8 µM | 6.64 µM | 17.7 µM |  |  |  |  |  |  |  |  | 
Cc1ccccc1N1C(=O)C2C=CC(n3[nH]c(=O)n(Cc4ccccc4)c3=O)CC2C1=O (stereo not given) | > 100 µM | > 100 µM | > 100 µM |  |  | > 100 µM |  | > 100 µM | > 100 µM | > 100 µM |  |  |  |  |  |  |  |  | 
O=C(O)[C@@H]1CCS(=O)(=O)N1 | > 100 µM | > 100 µM |  | > 100 µM | > 100 µM | > 100 µM | > 100 µM | > 100 µM |  | > 100 µM |  |  |  |  |  |  |  |  | 
Cc1ccnc2[nH]c3ccccc3c(=O)c12 | 43.1 µM | 97.5 µM |  | > 100 µM | 41.8 µM | > 100 µM | > 100 µM | > 100 µM | 95.8 µM | > 100 µM |  |  |  |  |  |  |  |  | 
CN=C1CC2c3cc(OC)c(OC)cc3CCN2C2=C1C(=O)CC(C)(C)C2 (stereo not given) | > 100 µM | > 100 µM | > 100 µM |  |  | > 100 µM |  | > 100 µM |  | > 100 µM |  |  |  |  |  |  |  |  | 
COC(=O)C1=C(O)C(C(=O)OC)[C@]2(O)[C@H](C(=O)OC)[C@H]1C[C@@H](c1ccc(C(F)(F)F)cc1)[C@H]2C(=O)OC (stereo not given in full) | 22.4 µM | > 100 µM | 14.9 µM |  | > 100 µM | > 100 µM | > 100 µM | > 100 µM | > 100 µM | 23.4 µM |  |  |  |  |  |  |  |  | 
CC(=O)c1[nH]c(NCc2ccccc2)c(C(=S)Nc2ccccc2)c1N | 38.6 µM | 56.5 µM | 32.7 µM | > 100 µM | 33.9 µM | 39.2 µM | 37.2 µM | > 100 µM |  | 32.5 µM |  |  |  |  |  |  |  |  | 
CCCCCCOC(=O)/C=C/[C@]1(CO)C/C(=C/CC(C(C)C)C(C)C)C(=O)O1 | 25.7 µM | 20.5 µM |  | 28.1 µM | 15.1 µM | 31.6 µM | 30.4 µM | 27.7 µM | 56.1 µM | 17.6 µM |  |  |  |  |  |  |  |  | 
CSc1nc(Nc2cccc(C(F)(F)F)c2)c2c(N)nn(C)c2n1 | > 100 µM | > 100 µM | > 100 µM | > 100 µM | > 100 µM | > 100 µM |  | > 100 µM | > 100 µM | > 100 µM |  |  |  |  |  |  |  |  | 
OC1C#CCSCC#C/C=C\1 (stereo not given) | > 100 µM | 36.5 µM | > 100 µM | 7.72 µM | > 100 µM | 77 µM | > 100 µM | 36.6 µM |  | 39.5 µM |  |  |  |  |  |  |  |  | 
CC(C)C(=O)OCC1OC(n2c(Br)nc3c(=O)[nH]c(N)nc32)C(OC(=O)C(C)C)C1OC(=O)C(C)C (stereo not given) | > 100 µM | 58 µM |  | > 100 µM |  | > 100 µM | > 100 µM | > 100 µM |  | 65.3 µM |  |  |  |  |  |  |  |  | 
